{
  "source": "patent US8883754B2",
  "about": "“Method for inhibiting angiogenesis” (Ewha University—Industry Collaboration Foundation, priority 2009, dated 2014)",
  "key": {"VEGFR-2 RTK": {"biological_target": "T1, VEGFR-2 RTK (Homo sapiens, UniProt P35968)", "T1 construct": "The VEGFR-2 was immunoprecipitated from Prx II siRNA-transfected or H2O2 (100 μM)-pretreated HAECs; endogenous in cells; host or cells: HAECs (human aortic endothelial cells)", "T1 sequence (P35968 20-1356)": "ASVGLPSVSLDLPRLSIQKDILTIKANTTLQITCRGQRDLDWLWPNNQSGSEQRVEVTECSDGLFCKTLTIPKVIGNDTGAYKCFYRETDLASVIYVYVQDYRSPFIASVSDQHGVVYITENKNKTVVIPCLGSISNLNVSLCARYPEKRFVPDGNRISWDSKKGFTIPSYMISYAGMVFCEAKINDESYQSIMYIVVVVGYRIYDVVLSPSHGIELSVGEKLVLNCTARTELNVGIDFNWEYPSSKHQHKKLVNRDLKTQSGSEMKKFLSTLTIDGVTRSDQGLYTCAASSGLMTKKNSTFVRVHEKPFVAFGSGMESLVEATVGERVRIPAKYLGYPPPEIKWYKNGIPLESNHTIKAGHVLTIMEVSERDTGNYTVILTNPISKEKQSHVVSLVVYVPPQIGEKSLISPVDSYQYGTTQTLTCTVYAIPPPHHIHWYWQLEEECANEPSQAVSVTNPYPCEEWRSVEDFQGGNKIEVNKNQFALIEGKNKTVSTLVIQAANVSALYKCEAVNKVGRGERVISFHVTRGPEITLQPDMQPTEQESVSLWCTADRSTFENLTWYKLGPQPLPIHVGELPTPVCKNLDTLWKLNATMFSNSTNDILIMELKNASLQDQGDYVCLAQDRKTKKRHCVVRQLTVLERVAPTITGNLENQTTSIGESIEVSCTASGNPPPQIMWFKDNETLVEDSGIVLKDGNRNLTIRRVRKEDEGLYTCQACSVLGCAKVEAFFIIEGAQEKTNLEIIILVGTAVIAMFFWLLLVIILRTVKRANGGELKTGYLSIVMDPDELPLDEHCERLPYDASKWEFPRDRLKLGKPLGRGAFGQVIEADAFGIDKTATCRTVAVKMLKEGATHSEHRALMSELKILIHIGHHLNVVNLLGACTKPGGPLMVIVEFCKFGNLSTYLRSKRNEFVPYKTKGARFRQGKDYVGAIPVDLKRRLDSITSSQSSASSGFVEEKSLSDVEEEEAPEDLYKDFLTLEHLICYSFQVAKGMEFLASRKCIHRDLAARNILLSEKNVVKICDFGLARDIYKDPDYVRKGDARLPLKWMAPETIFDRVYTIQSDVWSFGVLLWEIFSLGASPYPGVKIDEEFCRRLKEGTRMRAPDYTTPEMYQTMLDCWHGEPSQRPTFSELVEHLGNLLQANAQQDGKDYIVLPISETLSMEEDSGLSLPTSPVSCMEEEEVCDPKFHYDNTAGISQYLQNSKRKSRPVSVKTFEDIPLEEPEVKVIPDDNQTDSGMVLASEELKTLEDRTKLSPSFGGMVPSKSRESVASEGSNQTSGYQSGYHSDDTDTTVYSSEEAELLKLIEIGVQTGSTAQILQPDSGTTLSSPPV", "assay": "VEGFR-2 in vitro kinase assay on immunoprecipitates", "type": "cell-based", "procedure": "At the appropriate time, the culture media were aspirated and cells were lysed in extraction buffer (TEB) containing 20 mM Hepes (pH 7.0), 1% Triton X-100, 150 mM NaCl, 10% glycerol, 1 mM EDTA, 2 mM EGTA, 1 mM DTT, 5 mM Na3VO4, 5 mM NaF, 1 mM AEBSF, aprotinin (5 μg/mL), and leupeptin (5 μg/mL). After brief centrifugation, the protein content of samples was quantified using the Bradford reagent (Bio-Rad). For immunoprecipitation, the resulting supernatants (120 μg proteins) were pre-cleaned with 10 μL of protein-A/G Sepharose 4 Fast Flow beads (Amersham Biosciences) for 1 hr, incubated overnight with 2 μg of the indicated antibodies, and further incubated at 4° C. for 3 hrs with 20 μL of protein-A/G Sepharose beads. Immunocomplexes were washed three times with 1 mL of TEB and then subjected to either in vitro kinase assay or immunoblotting.\nThe in vitro kinase assay was done as previously described in Choi, M. H. et al., (Nature 2005 435 (7040), 347-353). Briefly, the immunocomplexes precipitated with rabbit anti-flk-1(sc-504) antibody were incubated with 30 μL of kinase buffer (20 mM HEPES pH 7.5, 20 mM MgCl2, 20 mM β-glycerophosphate, and 200 μM Na3VO4) containing […] of γ-^32[P]-ATP and 0.5 μg GST-PLCγ1 at 30° C. for 10 minutes. The reaction was stopped by the addition of a SDS sample buffer. The samples were then boiled and separated on SDS denaturing gel. […]"}, "2-cys Prxs": {"test_system": "2-cys Prxs", "conditions": "HAECs", "procedure": "(§1) For immunoblotting, cell lysates or the immunoprecipitates were mixed with 5× Laemmli sample buffer and boiled for 5 minutes. The samples were separated on a SDS denaturing gel and then electrophoretically transferred onto nitrocellulose membranes, which were subsequently subjected to immunoblotting. In order to block non-specific binding, the membrane was reacted with TBS (Tris-buffered saline; TBST) containing 0.5% Tween-20 and 5% nonfat milk at room temperature for 1 hour. The above described blots were reacted with each primary antibody in TBST containing 5% nonfat milk or BSA at 4° C. for overnight. After washing with TBST, the blots were reacted with horseradish peroxidase-conjugated goat anti-mouse immunoglobulin (IgG; 1:5000 dilution) or goat anti-rabbit IgG (1:3000 dilution) at room temperature for 45 minutes. Protein bands were detected using an Amersham ECLTM detection system (GE healthcare). When necessary, the membranes were stripped by shaking them for 60 minutes at 37° C. in 67 mM Tris (pH 6.7), 2% SDS, 100 mM 2-mercaptoethanol and reprobed. with the appropriate pan antibody."}, "HAECs": {"test_system": "HAECs", "assay": "VEGF-induced tube formation on Matrigel", "type": "cell-based, human", "conditions": "HAECs expressing mVEGFR-2 WT or C1206S; 1 μM pretreated for 1 hr before VEGF", "procedure": "For tube formation, the HAECs (50,000 cells/well) were placed on 12-well culture dishes coated with growth factor-reduced Matrigel matrix (BD Bioscience, cat #354230). Cells were cultured for 18 hrs in the EBM-2 media containing 0.5% serum medium in the presence or absence of VEGF-A (25 ng/mL). Thereafter, the cell images were taken from five random visual fields per sample and the total length of the tubes were quantitatively analyzed using an Image-Pro Plus version 6.2 (Media Cybernetics)."}, "[1]": {"test_system": "intracellular ROS (H2O2) level in HAECs", "assay": "Detection and measurement of reactive oxygen species (CM-H2DCFDA, DCF fluorescence)", "type": "cell-based, human", "conditions": "for level of ROS/H2O2 elevated by the Prx II knockdown: HAECs with Prx II knockdown", "procedure": "HAECs were rinsed with Endothelial Basal Medium without phenol red (EBM, Lonza) and immediately incubated with 5 μM 5,6-chloromethyl-2′,7′-dichlorodihydrofluorescein diacetate (CM-H2DCFDA) (Molecular Probe) at 37° C. for 5 minutes. After briefly washing the cell with EBM, the fluorescence images were taken by fluorescence microscope (Axiovert 200 Basic standard, Zeiss, Germany). The relative DCF fluorescence was calculated by averaging the levels of fluorescence from 50-80 cells after subtracting the background fluorescence."}, "VEGF-VEGFR-2 signaling": {"test_system": "VEGF-VEGFR-2 signaling", "conditions": "for VEGFR-2 activation in response to VEGF in Prx II knockdown cells: HAECs with Prx II knockdown", "description": "Sequences of the four siRNA duplexes for human Prx II were 5′-[…]-3′ (#1, SEQ ID NO. 1), 5′-[…]-3′ (#2, SEQ ID NO. 2), 5′-[…]-3′ (#3, SEQ ID NO. 3) and 5′-[…]-3′ (#4, SEQ ID NO. 4). The Prx II siRNA duplex #1 was mainly used for the study. Sequences of the four siRNA duplexes for human Prx I were 5′-[…]-3′ (#1, SEQ ID NO. 5), 5′-[…]-3′ (#2, SEQ ID NO. 6), 5′-[…]-3′ (#3, SEQ ID NO. 7) and 5′-[…]-3′ (#4, SEQ ID NO. 8); those for human GPxl, 5′-[…]-3′ (#1, SEQ ID NO. 9), 5′-[…]-3′ (#2, SEQ ID NO. 10), 5′-[…]-3′ (#3, SEQ ID NO. 11) and 5′-[…]-3′ (#4, SEQ ID NO. 12). A Prx III-specific siRNA was previously described in Chang, T. S. et al., (J Biol Chem 2004 279 (40), 41975-41984). The firefly luciferase siRNA were purchased or synthesized from Dharmacon. SiRNA duplexes for human VEGFR-1 (Cat No. sc-29319), VEGFR-2 (Cat No. sc-29318), and Prx IV (Cat. No. sc-40835) was purchased from Santa Cruz Biotechnology. The sequence of siRNA specific to human NOX4 was 5′-[…]-3′ (SEQ ID NO. 13). Human caveolin-1 siRNA, 5′-[…]-3′ (SEQ ID NO. 14) was purchased from Qiagen. Unless otherwise stated, the endothelial cells (ECs) were transfected with the siRNA duplexes for 24 hrs using lipofectamine RNAi MAXTM (Invitrogen). Then, the cells were serum-starved for an additional 18 hrs in media containing 0.5% fetal bovine serum before VEGF stimulation.\nas §1"}},
  "note": "Like-named read-outs stand apart in the source and are kept apart here.",
  "data": [
    {"molecule": "OO", "note": "[H2O2, hydrogen peroxide]", "values": [
      {"measurement": "VEGF-dependent induction of VEGFR-2 RTK activation after pretreatment", "setting": "VEGFR-2 RTK; HAECs pretreated at various concentrations", "value": "suppressed VEGF-dependent induction of VEGFR-2 RTK activation in a dose-dependent manner"},
      {"measurement": "hyperoxidation of 2-cys Prxs", "setting": "2-cys Prxs; micromolar concentrations up to 100 μM, 10 minutes", "value": "did not induce hyperoxidation"},
      {"measurement": "hyperoxidation of 2-cys Prxs", "setting": "2-cys Prxs; millimolar concentration (1 mM)", "value": "only slightly induced the hyperoxidation of Prx I and Prx III, but not Prx II"}
    ]},
    {"molecule": "Cc1cc(C)c(/C=C2\\C(=O)Nc3ccccc32)[nH]1", "note": "[SU5416]", "values": [
      {"measurement": "tube formation by VEGFR-2 WT and C1206S mutant", "setting": "HAECs", "value": "completely blocked"}
    ]},
    {"molecule": "VEGF", "values": [
      {"measurement": "increase of ROS on VEGF treatment", "setting": "[1]; control HAECs", "value": "two-fold"}
    ]},
    {"molecule": "5′-GCAUCAACUUGCAGAAAGAUU-3′ [caveolin-1 siRNA]", "values": [
      {"measurement": "VEGFR-2 activation in response to VEGF in Prx II knockdown cells", "setting": "VEGF-VEGFR-2 signaling", "value": "no longer affected by the Prx II knockdown"}
    ]},
    {"molecule": "5′-GUCAACAUCCAGCUGUACC-3′ [NOX4 siRNA]", "values": [
      {"measurement": "VEGFR-2 activation in response to VEGF in Prx II knockdown cells", "setting": "VEGF-VEGFR-2 signaling", "value": "completely rescued"},
      {"measurement": "level of ROS/H2O2 elevated by the Prx II knockdown", "setting": "[1]", "value": "background level"}
    ]},
    {"molecule": "O[C@H](CS)[C@H](O)CS", "note": "(racemic) [DTT, dithiothreitol]", "values": [
      {"measurement": "RTK activation abolished by Prx II knockdown or H2O2 treatment", "setting": "VEGFR-2 RTK; VEGFR-2 immunoprecipitated from HAECs, incubated 10 minutes", "value": "fully restored"}
    ]},
    {"molecule": "methyl-β-cyclodextrin [MβCD]", "values": [
      {"measurement": "VEGFR-2 activation in response to VEGF in Prx II knockdown cells", "setting": "VEGF-VEGFR-2 signaling", "value": "restored VEGFR-2 activation"}
    ]},
    {"molecule": "catalase: polyethylene glycol (PEG)-conjugated catalase, an enzyme that reduces H2O2 to H2O (protein, UniProt P00432 2-527, looked up, PEG, polyethylene glycol (PEG)-conjugated catalase, an enzyme that reduces H2O2 to H2O) Catalase: ADNRDPASDQMKHWKEQRAAQKPDVLTTGGGNPVGDKLNSLTVGPRGPLLVQDVVFTDEMAHFDRERIPERVVHAKGAGAFGYFEVTHDITRYSKAKVFEHIGKRTPIAVRFSTVAGESGSADTVRDPRGFAVKFYTEDGNWDLVGNNTPIFFIRDALLFPSFIHSQKRNPQTHLKDPDMVWDFWSLRPESLHQVSFLFSDRGIPDGHRHMNGYGSHTFKLVNANGEAVYCKFHYKTDQGIKNLSVEDAARLAHEDPDYGLRDLFNAIATGNYPSWTLYIQVMTFSEAEIFPFNPFDLTKVWPHGDYPLIPVGKLVLNRNPVNYFAEVEQLAFDPSNMPPGIEPSPDKMLQGRLFAYPDTHRHRLGPNYLQIPVNCPYRARVANYQRDGPMCMMDNQGGAPNYYPNSFSAPEHQPSALEHRTHFSGDVQRFNSANDDNVTQVRTFYLKVLNEEQRKRLCENIAGHLKDAQLFIQKKAVKNFSDVHPEYGSRIQALLDKYNEEKPKNAVHTYVQHGSHLSAREKANL", "values": [
      {"measurement": "VEGF-dependent tyrosine phosphorylation", "setting": "VEGF-VEGFR-2 signaling; HAECs pretreated with PEG-catalase, increasing doses, 18 hours", "value": "gradually decreased"},
      {"measurement": "level of ROS/H2O2 elevated by the Prx II knockdown", "setting": "[1]", "value": "background level"}
    ]}
  ]
}
